From ChEMBL document CHEMBL5120905, “Examining the Role of the Linker in Bitopic N6-Substituted Adenosine Derivatives Acting as Biased Adenosine A1 Receptor Agonists” (J Med Chem, 2022) come the findings set out here.

Holding throughout (type): functional, cell-based
Assay [1] addresses T1, Adenosine receptor A1 (Homo sapiens, UniProt P30542).
T1 sequence (P30542 whole entry): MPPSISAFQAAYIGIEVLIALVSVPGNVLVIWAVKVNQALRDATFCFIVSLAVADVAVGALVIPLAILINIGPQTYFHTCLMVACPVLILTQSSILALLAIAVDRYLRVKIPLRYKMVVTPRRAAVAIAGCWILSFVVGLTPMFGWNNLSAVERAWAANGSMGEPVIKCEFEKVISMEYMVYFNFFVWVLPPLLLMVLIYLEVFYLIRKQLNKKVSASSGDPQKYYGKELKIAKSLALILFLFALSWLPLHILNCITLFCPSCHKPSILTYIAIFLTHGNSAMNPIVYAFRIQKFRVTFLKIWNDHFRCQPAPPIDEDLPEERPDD
The assay is described as follows: Agonist activity at human A1 receptor expressed in Flp-In-CHO cells assessed as inhibition of forskolin stimulated cAMP accumulation incubated for 30 mins by LANCE cAMP assay. Background: Cyclic AMP is a second messenger, typically raised through Gs and lowered through Gi signalling.

The target in another assay is T2, Adenosine receptor A2b (Homo sapiens, UniProt P29275).
T2 sequence (P29275 whole entry): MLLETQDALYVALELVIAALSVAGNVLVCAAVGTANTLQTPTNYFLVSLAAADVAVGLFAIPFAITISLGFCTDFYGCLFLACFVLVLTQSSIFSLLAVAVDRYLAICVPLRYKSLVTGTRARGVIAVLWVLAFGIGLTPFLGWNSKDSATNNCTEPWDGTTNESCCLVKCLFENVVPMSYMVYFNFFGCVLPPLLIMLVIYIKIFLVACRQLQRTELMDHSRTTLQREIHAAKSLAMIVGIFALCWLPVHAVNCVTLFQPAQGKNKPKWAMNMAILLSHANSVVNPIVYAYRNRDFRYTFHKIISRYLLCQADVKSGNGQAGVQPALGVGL
The assay can be described thus: Agonist activity at human A2B receptor expressed in Flp-In-CHO cells assessed as cAMP accumulation incubated for 10 mins in presence of forskolin by LANCE cAMP assay.

The target of a further assay is Adenosine receptor A2a (Homo sapiens, UniProt P29274). The assay can be described thus: Agonist activity at human A2A receptor expressed in Flp-In-CHO cells assessed as cAMP accumulation incubated for 30 mins by LANCE cAMP assay.
In assay [2] the target is T1, Adenosine receptor A1. The assay can be described thus: Agonist activity at human A1 receptor expressed in Flp-In-CHO cells assessed as stimulation of calcium mobilization by calcium mobilization assay. Background: Calcium flux is commonly read through the fluorescence of an indicator in the cells.

Chain of Adenosine receptor A2a (P29274 whole entry): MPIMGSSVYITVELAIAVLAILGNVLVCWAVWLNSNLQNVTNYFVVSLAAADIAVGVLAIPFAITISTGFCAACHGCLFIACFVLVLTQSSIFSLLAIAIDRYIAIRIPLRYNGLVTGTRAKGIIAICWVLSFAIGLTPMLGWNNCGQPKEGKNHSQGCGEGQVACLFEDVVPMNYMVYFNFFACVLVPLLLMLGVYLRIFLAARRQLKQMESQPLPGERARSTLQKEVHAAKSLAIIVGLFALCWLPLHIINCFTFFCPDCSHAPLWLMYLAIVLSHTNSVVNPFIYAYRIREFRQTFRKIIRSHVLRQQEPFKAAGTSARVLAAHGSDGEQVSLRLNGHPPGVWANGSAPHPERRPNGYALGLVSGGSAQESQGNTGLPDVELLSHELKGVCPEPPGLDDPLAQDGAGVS

Consider `Nc1sc(-c2ccc(C(=O)NCCc3ccc(CCNc4ncnc5c4ncn5[C@@H]4O[C@H](CO)[C@@H](O)[C@H]4O)cc3)cc2)c(-c2cccc(C(F)(F)F)c2)c1C(=O)c1ccccc1`, for which the EC50 at Adenosine receptor A1 [1] is 550 nM; on Adenosine receptor A2b it was 52.5 nM; on Adenosine receptor A2a, 363 nM; at Adenosine receptor A1 [2] it was above 10000 nM.

As to `Nc1sc(-c2ccc(C(=O)NCCCCCCNc3ncnc4c3ncn4[C@@H]3O[C@H](CO)[C@@H](O)[C@H]3O)cc2)c(-c2cccc(C(F)(F)F)c2)c1C(=O)c1ccccc1`, the concentration for a half-maximal effect (EC50) on Adenosine receptor A2a was 389 nM.

Take `Nc1sc(-c2ccc(C(=O)NCCC#Cc3ccc(Nc4ncnc5c4ncn5[C@@H]4O[C@H](CO)[C@@H](O)[C@H]4O)cc3)cc2)c(-c2cccc(C(F)(F)F)c2)c1C(=O)c1ccccc1`: the concentration giving a half-maximal response (EC50) at Adenosine receptor A2a was 741 nM.

A word on the EC50: it is the concentration giving half of the maximal effect.
